Assay results: ChEMBL document CHEMBL1201862, “PubChem BioAssay data set” (2004)
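Tested at 5 concentrations; 48 h exposure; 96-well plates; endpoints linearly interpolated, else capped at highest concentration. Here, GI50 denotes the concentration required for 50% inhibition of growth.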 The source made the active and inactive calls. Cut-off read from the data, not from the text of the source: active = GI50 up to about 1.1 µM and inactive = higher.

Legend:
Test in all cases: NCI tumour cell line growth inhibition, 48 h
786-0 = system: 786-0
OVCAR-5 = system: OVCAR-5
SF-295 = system: SF-295
KM12 = system: KM12
SF-539 = system: SF-539
HT-29 = system: HT-29
HCC 2998 = system: HCC 2998
BT-549 = system: BT-549
M14 = system: M14
NCI-H522 = system: NCI-H522
MDA-N = system: MDA-N
IGROV-1 = system: IGROV-1
HL-60 = system: HL-60
Hs-578T = system: Hs-578T
HCT-116 = system: HCT-116
RPMI-8226 = system: RPMI-8226
CCRF-CEM = system: CCRF-CEM
A549 = system: A549
HOP-92 = system: HOP-92

Measured: GI50

Cc1ccc([S+]([O-])c2sccc2C=O)cc1 (centres undefined)
inactive: 786-0 32.1 µM | OVCAR-5 49.2 µM | SF-295 23.7 µM | KM12 27.7 µM | SF-539 21 µM | HT-29 19.8 µM | HCC 2998 32.7 µM | BT-549 25 µM | M14 20 µM | NCI-H522 41.1 µM | MDA-N 27.6 µM | IGROV-1 22.6 µM | HL-60 21 µM | Hs-578T 24.4 µM | HCT-116 16.4 µM | RPMI-8226 31 µM | CCRF-CEM 20 µM | A549 > 100 µM

CC1CC(=O)N2CCCNC2=C1C#N (centres undefined)
inactive: 786-0 > 100 µM | SF-295 > 100 µM | KM12 > 100 µM | SF-539 > 100 µM | HT-29 > 100 µM | HCC 2998 > 100 µM | BT-549 > 100 µM | M14 > 100 µM | NCI-H522 > 100 µM | MDA-N > 100 µM | IGROV-1 > 100 µM | HL-60 > 10 µM | Hs-578T > 100 µM | HCT-116 > 100 µM | RPMI-8226 > 100 µM | CCRF-CEM > 100 µM | A549 > 100 µM

CP(C)(=S)P(C)(C)=S
inactive: 786-0 > 100 µM | OVCAR-5 > 100 µM | SF-295 > 100 µM | SF-539 > 100 µM | HT-29 > 100 µM | HCC 2998 > 100 µM | BT-549 > 100 µM | M14 > 100 µM | NCI-H522 > 100 µM | MDA-N > 100 µM | IGROV-1 78.5 µM | HL-60 > 100 µM | Hs-578T > 100 µM | HCT-116 > 100 µM | RPMI-8226 > 100 µM | CCRF-CEM > 100 µM | A549 > 100 µM

N#Cc1c(C#N)c(-c2ccccc2)n(Cc2ccccc2)c1N
inactive: 786-0 35 µM | OVCAR-5 > 100 µM | SF-295 > 100 µM | KM12 > 100 µM | SF-539 26 µM | HT-29 > 100 µM | HCC 2998 > 100 µM | BT-549 > 100 µM | M14 > 100 µM | NCI-H522 > 100 µM | MDA-N > 100 µM | IGROV-1 > 100 µM | HL-60 > 100 µM | Hs-578T 25.6 µM | HCT-116 > 100 µM | RPMI-8226 > 100 µM | CCRF-CEM > 100 µM | A549 > 100 µM

C[C@@H]1S[C@H](c2c(Cl)cccc2Cl)N2Cc3ccccc3N=C12
inactive: 786-0 > 100 µM | OVCAR-5 > 100 µM | SF-295 > 100 µM | KM12 85.5 µM | SF-539 > 100 µM | HCC 2998 > 100 µM | BT-549 > 100 µM | M14 > 100 µM | MDA-N > 100 µM | IGROV-1 > 100 µM | HL-60 48.4 µM | Hs-578T > 100 µM | HCT-116 11.5 µM | RPMI-8226 > 100 µM | HOP-92 > 100 µM | CCRF-CEM > 100 µM | A549 > 100 µM

N=c1oc2ccc(Cl)cc2cc1C(=O)NC1CCCCC1
inactive: 786-0 87.9 µM | OVCAR-5 > 100 µM | KM12 47.6 µM | SF-539 81.8 µM | HT-29 > 100 µM | HCC 2998 32.1 µM | BT-549 > 100 µM | M14 > 100 µM | MDA-N 88.5 µM | IGROV-1 41 µM | HL-60 39.7 µM | Hs-578T 30.9 µM | HCT-116 55.5 µM | RPMI-8226 59.3 µM | HOP-92 > 100 µM | CCRF-CEM 33.7 µM | A549 71.3 µM
